Values belong to the molecule of their own block, whether it stands above or below them.
Key:
[1] = Longitudinal relaxivity r1 in water at 60 MHz (WP80 NMR, Bruker); format: physicochemical; settings: at 25° C., pH = 7.4, and 60 MHz
Method: Equimolar quantities of ligand and MnCl2 were dissolved in milli-Q water, the pH was adjusted to 7.4 either with a buffered solution or by adding KOH or HCl to the solution and the samples were heated at 60° C. for 30 min. The absence of free Mn^2+ was checked by the Xylenol orange test.
The relaxivity at 60 MHz is measured with a device commercialized under the brand name WP80 NMR by the firm Brucker according to the following protocol. A millimolar aqueous solution of complex was prepared with Milli-Q water (p<18MΩ). The concentration of Mn^2+-containing samples was checked by ICP-OES and/or NMR by using the bulk magnetic susceptibility. The absence of free Mn^2+ was checked by the Xylenol orange test. For the relaxivity measurement, the temperature was monitored by a VTC91 temperature control unit and maintained by a gas flow. The temperature was determined by previous calibration with a Pt resistance temperature probe.

[2] = pH of 7.4, 60 MHz, 25° C.; cited from earlier work
[3] = Kinetic inertness: half-life by transmetallation of the Mn2+ complex with excess Zn2+, followed by water proton relaxation rates; format: physicochemical; settings: 25 eq Zn^2+, pH = 6, 37° C.; read-out: Half-life in excess of Zn^2+ (t1/2) (converted)
Method: The excess of the exchanging metal ion guarantees the pseudo-first order conditions. For the duration of the experiments (up to 3 months), the samples were stored in a thermostat at 37° C. between the relaxivity measurements. The pH was controlled for each sample at the end of the kinetic measurements to confirm that it remained stable during the experiment. The reactions were monitored by measuring the water proton relaxation rates at 60 MHz on a relaxometer commercialized under the brand name Minispec by the firm a Bruker. The analysis of the experimental data was performed using Visualiseur/Optimiseur running on a MATLAB 8.3.0 (R2014a) platform according to equations (1) and (2): […]
were [MnL]t stands for the total concentration of MnL complex, Kobs stands for the pseudo-first order constant and t1/2 is the half-life of the MnL complex in the given conditions.

Longitudinal relaxivity in water (r1) ([1]; listed as (I-A)): 4.89 mM⁻¹ s⁻¹
Compound: CN1[C@@H](c2ccccn2)C2(C(=O)O)CN([C@@H](CCCCNC(=O)CCOCCOCCO)C(=O)O)CC(C(=O)O)([C@H]2O)[C@H]1c1ccccn1 [(I-a)]

Compound: CNC[C@H](O)[C@@H](O)[C@H](O)[C@H](O)CO.O=C([O-])CN1CCN(CC(=O)[O-])CCN(CC(=O)O)CCN(CC(=O)[O-])CC1.[Gd+3] [Dotarem, gadoterate meglumine]
relaxivity r1 [2]: 3.7 mM⁻¹ s⁻¹

Longitudinal relaxivity in water (r1) ([1]; listed as (I-D)): 4.03 mM⁻¹ s⁻¹ | half-life at 1 mM [3]: 160 days
Compound: CN1[C@@H](c2ccccn2)C2(C(=O)O)CN([C@@H](CCCCNC(=O)CCOCCOCCO)C(=O)O)CC(C(=O)O)([C@H]2O)[C@H]1c1ccccn1 [(I-d)]

— patent publication US20250064993A1, “NOVEL BISPIDINE-BASED METAL CHELATING LIGANDS DISPLAYING GOOD RELAXIVITY” (UNIVERSITE DE STRASBOURG, priority 2021, published 2025)
